Columns and labels:
[1] = Metabolic stability in liver microsomes, human; format: in vitro ADME; conditions: low value = metabolically stable
Experimental: (§1) Also the metabolic stability in liver microsomes was tested for some compounds.

[2] = biological target: T1, ERα (Homo sapiens, UniProt P03372); assay: Luciferase reporter gene assay (3*ERE) in HEK293 cells, ERα; format: cell-based; design: expressed in transfected cells; host or cells: transient transfection; conditions: 48 hours; for EC50: na = not active, read-out: Luciferase Erα pEC50 (converted)
T1 sequence (P03372 1-595): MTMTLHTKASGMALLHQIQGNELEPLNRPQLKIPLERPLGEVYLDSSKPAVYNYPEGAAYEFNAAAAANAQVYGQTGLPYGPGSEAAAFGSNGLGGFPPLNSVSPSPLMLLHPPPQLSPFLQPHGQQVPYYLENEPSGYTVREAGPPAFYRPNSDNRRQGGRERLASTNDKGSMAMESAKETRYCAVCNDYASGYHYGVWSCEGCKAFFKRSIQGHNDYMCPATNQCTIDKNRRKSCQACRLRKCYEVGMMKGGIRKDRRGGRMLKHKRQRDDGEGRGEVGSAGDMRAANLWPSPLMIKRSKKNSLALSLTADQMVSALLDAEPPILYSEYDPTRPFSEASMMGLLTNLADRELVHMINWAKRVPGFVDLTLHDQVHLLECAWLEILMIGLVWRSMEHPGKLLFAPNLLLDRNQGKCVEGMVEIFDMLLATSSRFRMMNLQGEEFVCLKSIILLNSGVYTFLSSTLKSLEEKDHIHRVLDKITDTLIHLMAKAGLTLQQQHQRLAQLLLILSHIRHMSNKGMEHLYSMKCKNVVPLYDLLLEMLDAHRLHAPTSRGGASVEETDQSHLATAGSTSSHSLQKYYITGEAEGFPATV
Experimental: HEK293 cells were grown to 70% confluency in DMEM containing 10% calf serum (Hyclone) prior to transfection. On the day of transfection (day 1), expression vectors for ERα or ERβ were cotransfected along a construct containing a synthetic 3*ERE upstream of the luciferase gene (Panomics), using Polyfect (Qiagen) per manufacturer's recommendations (ERE being estrogen response element). Sixteen hours post-transfection, cells were incubated in serum free DMEM. […] Cells extracts were then obtained by lyzing and the Luciferase activity measured, all of these steps performed using a commercially available kit (Promega).

[3] = Non-specific binding assessment across tissue-free inserts; format: in vitro ADME; conditions: tissue-free insert, DPBS; for recovery at 120 min, 1 μM: tissue-free Millipore Millicell culture plate inserts; for Papp at 120 min, 1 μM: read-out: apparent permeability coefficient (Papp) through cell-free insert
Experimental: Non-specific binding assessment (NSB) was conducted in a tissue-free plate containing Millipore Millicell culture plate inserts that were the same ones that were used in the permeation study across the culture tissues. Each of the tested compounds was dosed at 1 μM with DPBS buffer. Sampling time for the receiver chambers was 120 minutes after dosing, while the donor sides were sampled at 0 and 120 minutes after dosing. The NSB assessments consisted of the permeation rates across tissue-free inserts and the percent recovery by calculating the mass balance of the test campounds at the end of the experiment. The recovery assessment was used to assess the non-specific binding property of the tested compounds to the assay apparatus.

[4] = Metabolic stability in liver microsomes, rat; format: in vitro ADME; conditions: low value = metabolically stable
Experimental: as §1

[5] = biological target: ERβ (Homo sapiens, UniProt Q92731); assay: R-SAT functional assay, ERβ; format: cell-based; design: expressed in transfected cells; host or cells: transient transfection
Chain of ERβ (Q92731 whole entry, species assumed): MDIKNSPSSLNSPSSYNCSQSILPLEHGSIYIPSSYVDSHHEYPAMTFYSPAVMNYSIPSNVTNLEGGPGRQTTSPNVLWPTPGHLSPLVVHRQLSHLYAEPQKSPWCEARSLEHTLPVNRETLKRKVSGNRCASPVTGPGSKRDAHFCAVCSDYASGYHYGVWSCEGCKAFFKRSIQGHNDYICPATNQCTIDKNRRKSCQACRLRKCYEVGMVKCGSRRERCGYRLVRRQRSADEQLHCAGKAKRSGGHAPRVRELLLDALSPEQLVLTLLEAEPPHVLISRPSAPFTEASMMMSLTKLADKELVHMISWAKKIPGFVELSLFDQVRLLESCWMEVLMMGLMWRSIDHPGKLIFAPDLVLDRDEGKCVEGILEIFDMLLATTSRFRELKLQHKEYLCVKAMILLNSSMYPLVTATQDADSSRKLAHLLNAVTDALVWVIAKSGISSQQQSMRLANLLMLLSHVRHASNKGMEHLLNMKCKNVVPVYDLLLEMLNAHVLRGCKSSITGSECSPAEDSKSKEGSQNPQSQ

[6] = biological target: T1, ERα; assay: R-SAT functional assay, ERα; format: cell-based; design: expressed in transfected cells; host or cells: NIH-3T3 fibroblasts, transient transfection; conditions: NIH-3T3 cells; for EC50: na = not active, read-out: R-SAT Erα pEC50 (converted)
Text: R-SAT® (Receptor Selection and Amplification Technology) is a cell-based functional assay that allows one to monitor receptor-dependent proliferative responses and has been described elsewhere. […] This process is achieved by partial cellular transformation via loss of contact inhibition and growth factor dependency. Monitoring is achieved by transfecting the cells with a β-galactosidase reporter gene vector whose expression is under a constitutively active promoter. Briefly, NIH-3T3 fibroblasts were plated overnight in 96-wells plates in DMEM 10% calf serum (Hyclone) and grown to 60-70% confluency prior to transfection. Transient transfections were performed using Polyfect (Qiagen) according to manufacturer's instructions. Typically a transfection mix would consist of the receptor and the β-galactosidase expression vectors. Sixteen hours post-transfection, cells were incubated with different doses of ligand in DMEM containing 30% Ultraculture (Hyclone) and 0.4% calf serum (Hyclone) to generate a dose response curve. […] Plates were read using a microplate reader at 420 nm. Data from R-SAT® assays were fit to the equation: r=A+B(x/(x+c)), where A=minimum response, B=maximum response minus minimum response, c=EC50, r=response, and x=concentration of ligand. Curves were generated using the curve fitting softwares Excel Fit and GraphPad Prism (San Diego, Calif.). Luciferase Reporter Gene Assay

[7] = biological target: T1, ERα; assay: Competitive 3H-estradiol binding assay, ERα; conditions: 1 nM 3H-estradiol, HEK293T cytosolic extract; read-out: Binding ERα pKi (converted)
Experimental: HEK293T cells were transiently transfected for 48 hours with expression vectors encoding ERα or ERβ, before being serum starved for 4-6 hours. Cells were then harvested by scraping in ice-cold PBS and subsequently lysed using a cold buffer containing 10 mM Tris pH 7.4, 1 mM EDTA, 1 mM DTT before being subjected to polytron twice for 10 seconds. Cytosolic extracts were isolated by centrifugation at 15000 g for 30 minutes at 4° C. Competitive binding of the test compounds or the estradiol control was performed on 20 μL extract by overnight incubation at 4° C. in a total volume of 100 μL containing 1 nM ^3H-estradiol (Perkin Elmer, Boston, Mass.). The bound fraction was separated from the unbound one by the addition of 100 μL of Dextran coated charcoal, incubated for 10 minutes and subsequent centrifugation at 1000 rpm for 10 minutes. Samples (100 μL per sample) were then analyzed by liquid scintillation. Data was then analyzed using the curve fitting software GraphPad Prism.

[8] = tested on: CFA-treated animals; assay: Complete Freund's Adjuvant (CFA) model of chronic inflammation; format: in vivo, Rats; conditions: 10 mg/kg sc, 24 hrs after drug administration
Experimental: Rats were treated with Complete Freund's Adjuvant (CFA). After 4 days (upon reaching stable inflammation), CFA-treated animals were treated with 10 mg/kg subcutaneously (sc) of Compound 8, incomplete Freund's Adjuvant or vehicle, respectively. Responses were measured 24 hrs after drug administration. […] Latencies, expressed in seconds (sec), were defined as the time needed for the animal to remove the treated paw from the hot surface.

[9] = Initial toxicity studies, in vitro and in vivo

Row | SMILES | microsomal CLint [1] [µL/min/mg] | Luciferase Erα % Eff [2] [%] | EC50 [2] [nM] | recovery at 120 min, 1 μM [3] [%] | Papp at 120 min, 1 μM [3] [×10⁻⁶ cm/s] | microsomal CLint [4] [µL/min/mg] | EC50 [5] [nM] | R-SAT Erα % Eff [6] [%] | EC50 [6] [nM] | Ki [7] [nM] | edema in the treated paw (inflammation) [8] | thermal hyperalgesia, 52° C. hot plate latency [8] | tolerability in initial toxicity studies [9]
1 | Oc1ccc(C2(c3ccccc3F)CCC(F)(F)CC2)cc1 [Compound 8, 4-(4,4-Difluoro-1-(2-fluorophenyl)cyclohexyl)phenol] | 11 | 32 | 631 | 57 | 19.8 | 150 | 1.26 | 62 | 1000 | 79.4 | inhibits hyperalgesia and inflammation | inhibits hyperalgesia | well tolerated
2 | Oc1ccc(C2(c3cccc(F)c3Cl)CCCCC2)cc1 [Compound 623] |  | 15 | 398 | 22 | 1.17 |  | 6.31 | 45 | 398 | 794 |  |  | 
3 | Oc1ccc(C2(c3ccccc3Cl)CCCCC2)cc1F [Compound 957] | 20 | 13 |  | 18 | 0.881 | 450 | 1.58 | 58 | 631 | 200 |  |  | 
